Where a name gives a salt, the structure may show the parent alone. Read-outs that look alike come from different tables or passages of the source.

In one test the test system is CHO-hM1 cells. Put plainly: Ca2+ assay features: Fluo-4 fluorescent signal of CHO-hM1 cells. Format: cell-based, Chinese hamster. As to conditions: bath application.
The subject of test [1] is pilocarpine-induced seizures in C57BL/6 mice. Put plainly: Pilocarpine-induced seizures. Format: in vivo, mouse.
The target of a further test is human α7 nAChR (Homo sapiens, UniProt P36544). Particulars: for inhibition of acetylcholine-induced inward current: acetylcholine 1 mM.
Sequence of human α7 nAChR (P36544 23-502): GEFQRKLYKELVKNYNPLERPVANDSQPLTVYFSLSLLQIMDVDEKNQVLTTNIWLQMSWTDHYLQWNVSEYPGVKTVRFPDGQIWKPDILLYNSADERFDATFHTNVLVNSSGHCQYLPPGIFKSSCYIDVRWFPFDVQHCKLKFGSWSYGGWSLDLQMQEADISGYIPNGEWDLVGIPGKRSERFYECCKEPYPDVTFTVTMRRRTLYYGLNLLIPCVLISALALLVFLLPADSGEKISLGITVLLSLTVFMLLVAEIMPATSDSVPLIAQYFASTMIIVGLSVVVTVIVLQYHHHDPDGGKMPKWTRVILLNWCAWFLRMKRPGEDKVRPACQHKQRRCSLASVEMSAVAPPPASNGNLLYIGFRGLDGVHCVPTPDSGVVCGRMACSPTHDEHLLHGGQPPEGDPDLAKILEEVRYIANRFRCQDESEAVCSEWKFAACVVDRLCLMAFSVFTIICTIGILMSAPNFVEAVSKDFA
The target of a further test is T1, human M1 mAChR (Homo sapiens, UniProt P11229).
T1 sequence (P11229 1-460): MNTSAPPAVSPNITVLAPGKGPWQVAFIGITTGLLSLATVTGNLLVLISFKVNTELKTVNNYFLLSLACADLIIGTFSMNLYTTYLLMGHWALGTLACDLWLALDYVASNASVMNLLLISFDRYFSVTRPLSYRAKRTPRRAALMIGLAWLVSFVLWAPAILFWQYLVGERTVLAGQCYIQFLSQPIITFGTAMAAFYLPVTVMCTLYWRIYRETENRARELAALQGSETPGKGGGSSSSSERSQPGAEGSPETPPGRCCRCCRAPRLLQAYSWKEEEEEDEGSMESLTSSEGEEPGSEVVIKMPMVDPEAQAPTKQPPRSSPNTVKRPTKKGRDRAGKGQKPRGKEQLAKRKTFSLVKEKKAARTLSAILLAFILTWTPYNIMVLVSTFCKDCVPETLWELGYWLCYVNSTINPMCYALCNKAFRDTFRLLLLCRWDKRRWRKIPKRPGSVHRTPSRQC

Test [2] relates to pilocarpine-induced total fluid secretion in C57BL/6 mice. As to conditions: s.c., pilocarpine 50 mg/kg i.p.

For the compound `Nc1ncnc2c1ncn2[C@@H]1O[C@H](COP(=O)(O)OP(=O)(O)OP(=O)(O)O)[C@@H](O)[C@H]1O` [ATP], the “effect on Ca2+-dependent fluorescent counts” value in the test with CHO-hM1 cells (ATP 100 μM) is reported as “rapidly increased the fluorescent counts”.
With `C/C=C(/C)C(=O)O[C@H]1C(C)=C2[C@H]([C@@H]1OC(=O)CCCCCCC)[C@@](C)(OC(C)=O)C[C@H](OC(=O)CCC)[C@@]1(O)[C@H]2OC(=O)[C@@]1(C)O` [Thapsigargin], the “effect on Ca2+-dependent fluorescent counts” value with CHO-hM1 cells (thapsigargin 1 μM) was “smaller and slower increase in the fluorescent counts”.
Consider `CN1[C@@H]2CC[C@H]1C[C@@H](OC(=O)C(CO)c1ccccc1)C2` (some centres unmarked) [atropine sulfate, Atropine sulfate monohydrate, reference compound], for which the “effect on pilocarpine-induced seizures” value in test [1] (3 mg/kg s.c. 25 min before pilocarpine 278 mg/kg) is given as “blocked the development of seizures in every mouse”.
On to ethylatropine bromide, for which the “inhibition of acetylcholine-induced inward current” value turned out to be 1.2 ± 8% at human α7 nAChR (3 μM, n = 3); 29 ± 3% against human α7 nAChR (30 μM, n = 5); 46 ± 2% against human α7 nAChR (300 μM, n = 4). Further, the “fold less potent than atropine sulfate at α7 nicotinic receptors” value on human α7 nAChR (ratio of estimated IC50s) is listed as roughly 300 fold. The “fold less potent than atropine at human M1 muscarinic receptors” value at human M1 mAChR is “approximately 3.3 fold”. Moreover, the “approximate IC50 for attenuation of pilocarpine-induced total secretion” value in test [2] was roughly 0.3 mg/kg. In addition, the “time to behavior score 3 after pilocarpine administration” value in test [1] (100 mg/kg s.c. 25 min before pilocarpine 278 mg/kg, all six mice) is given as no more than 30 min. For the same compound, in test [1] (100 mg/kg s.c. 25 min before pilocarpine 278 mg/kg, six mice), the “effect on pilocarpine-induced seizures” value is “experienced at least one tonic seizure”.

Values taken from PMC5872150 (ACS chemical neuroscience, 2017).
